The values below come from US8507562B2, “Synthesis of (1)-beta-elemene, (-)-beta-elemenal, (-)-beta-elemenol, (-)-beta-elemene fluoride and their analogues, intermediates, and composition and uses thereof” (HYWE Pharmaceuticals, Inc., priority 2004, dated 2013).

One data set relates to SKOV3/CIS cells. The note with it: cited from earlier work.
The subject of data set [1] is human glioma SHG-44G (xenograph under skin). In words: Xenograph under skin, injection directly into tumor. In kind it is in vivo, nude mice. The note with it: listed as printed Pos. Cont. VM-26: 60 mg/kg it × 10 qd. The source says: (§1) The mice were killed after 3 weeks.
Nude mice grew on the cengliu rack.

The test system of data set [2] is human glioma SHG44 (xenograph in brain). In words: Tumor xenographed in mice brain, survival. In kind it is in vivo, nude mice. Conditions: 5 mg/kg/time ip × 7 qd. The method, then:
(§2) Mice model with tumor xenographed in mice brain: Glioma cell line G-422 or SHG44 (log phase) were diluted to 2×10^7/ml in cell culture hood (no bacteria environment). Each mouse was injected with 0.05 ml of tumor cell in its brain. […] The survival time of these mice was recorded in the next 30 days. The life extension was calculated using the following formula: Life Extension Rate=[( […])/Average survival days of control group[×100 Results: […]

The test system of data set [3] is human glioma G422 (xenograph in brain). In words: Tumor xenographed in mice brain, survival. In kind it is in vivo. The note with it: 5 mg/kg/time ip × 7 qd. On the procedure:
as §2

The test system of data set [4] is human glioma G-422 (xenograph under skin). Nature of the data set: Xenograph under skin, injection directly into tumor. In kind it is in vivo, mice. The note with it: 5 mg ip × 10 qd.
Text: as §1

The subject of data set [5] is Colon Cancer Cells HCT-15. Nature of the data set: MTS cell viability assay. Conditions: combinations with Elemene 160 μg/ml, n = 8.
Data set [6] deals with Colon Cancer Cells Caco-2. Nature of the data set: MTS cell viability assay. In kind it is cell-based, human. Conditions: combinations with Elemene 100 μg/ml, n = 8.
The test system of data set [7] is Colon Cancer Cells Colo 205. Nature of the data set: MTS cell viability assay. The note with it: Colo 205, drug alone. Background: Tetrazolium assays rely on reduction of a dye to a coloured formazan, in cell work by metabolically active cells.
Data set [8] relates to late-stage colorectal cancer. Conditions: enema twice a day for 10 days; Elemene 200 mg (17 patients), 5-FU 500 mg (14 patients); cited from earlier work.
Data set [9] has as its system Colon Cancer Cells HCT-116. In words: MTS cell viability assay. The note with it: combinations with Elemene 160 μg/ml, n = 8. In kind it is cell-based, human.
In another data set the test system is A549 lung cancer. Nature of the data set: MTT survival assay. The note with it: 2 × 10^4 cells/ml.
For the next data set, the system named is H-460 lung cancer. Nature of the data set: MTT survival assay. In kind it is cell-based, human.
A further data set is described as follows: Solubility comparison. In kind it is physicochemical.
Data set [10] deals with CCL-2 (Hela) cervical cancer. Nature of the data set: MTT survival assay. Conditions: read-out: Cisplatin IC50, combination: Elemene at IC20 of the cell line. In kind it is cell-based, human.
In the next data set the test system is DU-145 prostate cancer. Nature of the data set: MTT survival assay. In kind it is cell-based, human. Conditions: read-out: Cisplatin IC50, combination: Elemene at IC20 of the cell line.
A further data set relates to MCAS ovarian cancer. In words: MTT survival assay. In kind it is cell-based, human. The note with it: read-out: Cisplatin IC50, combination: Elemene at IC20 of the cell line.
The next data set has as its system PC-3 prostate cancer. In words: MTT survival assay. In kind it is cell-based, human. Conditions: read-out: Cisplatin IC50, combination: Elemene at IC20 of the cell line.
In a further data set the test system is H-69 lung cancer. Nature of the data set: MTT survival assay. The note with it: read-out: Cisplatin IC50, combination: Elemene at IC20 of the cell line. In kind it is cell-based, human.
The next data set deals with A-172 brain tumor. Nature of the data set: MTT survival assay. In kind it is cell-based, human. Conditions: read-out: Cisplatin IC50; A-172; combination: Elemene at IC20 of the cell line.
The next data set relates to U-87 brain tumor. In words: MTT survival assay. The note with it: read-out: Cisplatin IC50; U-87; combination: Elemene at IC20 of the cell line. In kind it is cell-based, human.

Molecules are shown by their SMILES. ≈ marks a conversion by molar mass, not a printed value. Read-outs that look alike come from different tables or passages of the source.

Consider `COc1ccc(CCN(C)CCCC(C#N)(c2ccc(OC)c(OC)c2)C(C)C)cc1OC` (centres unmarked) [Verapamil], for which the “enhancement of sensitivity to doxorubicin” value with SKOV3/CIS cells is given as 260 fold.
Consider `COc1cc([C@@H]2c3cc4c(cc3[C@@H](O[C@@H]3O[C@@H]5CO[C@@H](c6cccs6)O[C@H]5[C@H](O)[C@H]3O)[C@H]3COC(=O)[C@H]23)OCO4)cc(OC)c1O` [VM26, reference compound], for which the “Inhibition Rate %” value in data set [1] is recorded as 61.08%; in data set [4], 85.78%. Also, the “Tumor Weight X ± SD” value in data set [1] (in g (unit assumed)) is reported as 0.72 ± 0.12; in data set [4] (in g (unit assumed)) it was 0.32 ± 0.12. The “Average Life Span (day) X± SD” value in data set [2] amounted to 30.8 ± 3.7 days; in data set [3], 21.5 ± 3.4 days. Besides, the “Survival time as % of control (T/C)” value in data set [2] (compared to control) was found to be 196.75%.
The IC50 is the concentration needed to halve the response being measured. As for `O=c1[nH]cc(F)c(=O)[nH]1` [Lr 5-Fu], the IC50 amounted to 40.0 ± 7.01 µg/mL in data set [5] (HCT-15, 4 hr/24 hr × 2); 28.4 ± 7.62 µg/mL in [5] (HCT-15, 4 hr/24 hr × 3); 80.0 ± 13.6 µg/mL in [5] (HCT-15, 4 hr/24 hr); 68.1 ± 7.63 µg/mL in data set [5] (HCT-15, 8 hr); 52.1 ± 5.09 µg/mL in data set [5] (HCT-15, 12 hr); 18.4 ± 4.32 µg/mL in data set [5] (HCT-15, 48 hr). Besides, the IC50 in data set [5] (HCT-15, 72 hr) came to 7.95 ± 3.80 µg/mL; in data set [6] (Caco-2, 4 hr/24 hr × 2), 17.0 ± 3.29 µg/mL; in [6] (Caco-2, 4 hr/24 hr × 3), 13.8 ± 2.27 µg/mL; in data set [6] (Caco-2, 4 hr/24 hr), 28.8 ± 9.87 µg/mL; in [6] (Caco-2, 4 hr), 189 ± 27.1 µg/mL; in [6] (Caco-2, 8 hr) it was 102 ± 13.0 µg/mL. Moreover, the IC50 in [6] (Caco-2, 12 hr) was determined as 42.5 ± 9.84 µg/mL; in [6] (Caco-2, 24 hr), 23.9 ± 4.37 µg/mL; in data set [6] (Caco-2, 48 hr) it was 18.3 ± 2.83 µg/mL; in data set [6] (Caco-2, 72 hr), 12.6 ± 2.07 µg/mL; in [7] (Time 4 hr, n = 8), 117 ± 9.02 µg/mL (≈ 899 µM); in [7] (Time 4 hr/24 hr × 2, n = 8), 26.3 ± 5.34 µg/mL (≈ 202 µM). The IC50 was 11.6 ± 4.13 µg/mL (≈ 89.2 µM) in [7] (Time 4 hr/24 hr × 3, n = 8); 34.6 ± 4.76 µg/mL (≈ 266 µM) in data set [7] (Time 4 hr/24 hr, n = 8); 91.3 ± 5.62 µg/mL (≈ 702 µM) in data set [7] (Time 8 hr, n = 8); 36.7 ± 4.66 µg/mL (≈ 282 µM) in [7] (Time 12 hr, n = 8); 21.1 ± 6.06 µg/mL (≈ 162 µM) in data set [7] (Time 24 hr, n = 8); 13.2 ± 1.44 µg/mL (≈ 101 µM) in data set [7] (Time 48 hr, n = 8). The IC50 amounted to 11.0 ± 1.60 µg/mL (≈ 84.6 µM) in data set [7] (Time 72 hr, n = 8); 42.7 ± 4.78 µg/mL in data set [9] (HCT-116, 4 hr/24 hr × 2); 22.4 ± 8.75 µg/mL in data set [9] (HCT-116, 4 hr/24 hr × 3); 85.1 ± 8.89 µg/mL in data set [9] (HCT-116, 4 hr/24 hr); 83.3 ± 12.1 µg/mL in [9] (HCT-116, 4 hr); 43.1 ± 13.1 µg/mL in data set [9] (HCT-116, 8 hr). Moreover, the IC50 in data set [9] (HCT-116, 12 hr) was found to be 21.7 ± 3.70 µg/mL; in [9] (HCT-116, 24 hr), 11.8 ± 2.54 µg/mL; in [9] (HCT-116, 48 hr), 7.4 ± 1.82 µg/mL; in [9] (HCT-116, 72 hr), 4.5 ± 0.74 µg/mL. Moreover, the CR entry in [8] was “CR: 57.1%”. Moreover, the PR entry in data set [8] was “PR: 21.4%”.
Regarding `C=C[C@]1(C)CC[C@@H](C(=C)CO)C[C@H]1C(=C)C` [(−)-beta-elemenol, (−)-Beta-elemenol], the IC50 in the data set on A549 lung cancer (A549, 24 h) was determined as 74.0 µg/mL (≈ 336 µM); with A549 lung cancer (A549, 48 h), 60.1 µg/mL (≈ 273 µM); in the data set on A549 lung cancer (A549, 72 h), 81.0 µg/mL (≈ 368 µM); in the data set with H-460 lung cancer (H460, 24 h, 2 × 10^4 cells/ml), 111.0 µg/mL; with H-460 lung cancer (H460, 48 h, 2 × 10^4 cells/ml), 69.0 µg/mL; in the data set with H-460 lung cancer (H460, 72 h, 2 × 10^4 cells/ml), 74.5 µg/mL. In addition, the “solubility relative to (−)-beta-elemene” value in the data set “Solubility comparison” is listed as “more soluble than (−)-beta-elemene”.
In the case of `N.N.[Cl][Pt][Cl]` [Cisplatin], the IC50 in data set [10] was 27.5 µM; in the data set on DU-145 prostate cancer, 384 µM; in the data set on MCAS ovarian cancer it was 38 µM; with PC-3 prostate cancer, 80 µM; in the data set with H-69 lung cancer it was 8 µM; in the data set with A-172 brain tumor it was 24 µM. Besides, the IC50 with H-460 lung cancer (read-out: Cisplatin IC50, H-460, combination: Elemene at IC20 of the cell line) was 80 µM; in the data set on U-87 brain tumor, 10 µM.
